Laboratory results: patent US7396837B2, “Antitumoral analogs of lamellarins” (Pharma Mar, S.A.U., priority 2002, dated 2008)

Experiments:
Type in all cases: cell-based
K-562 = experiment: SRB colorimetric cell growth inhibition assay, K-562; conditions: Homo sapiens
Method in brief: (§1)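 Triplicate-well SRB colorimetry following continuous sample exposure of human tumour cells; reported parameters are GI, TGI for cytostatic effect, and LC for cytotoxic effect.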

A-549 = experiment: SRB colorimetric cell growth inhibition assay, A-549; conditions: Homo sapiens
Method in brief: as §1

SK-MEL-28 = experiment: SRB colorimetric cell growth inhibition assay, SK-MEL-28; conditions: Homo sapiens
Method in brief: as §1

HT-29 = experiment: SRB colorimetric cell growth inhibition assay, HT-29; conditions: Homo sapiens
Method in brief: as §1

LoVo = experiment: SRB colorimetric cell growth inhibition assay, LoVo; conditions: Homo sapiens, LoVo
Method in brief: as §1

LoVo-Dox = experiment: SRB colorimetric cell growth inhibition assay, LoVo-Dox (MDR); conditions: Homo sapiens
Method in brief: as §1

DU-145 = experiment: SRB colorimetric cell growth inhibition assay, DU-145; conditions: Homo sapiens
Method in brief: as §1

LNCaP = experiment: SRB colorimetric cell growth inhibition assay, LNCaP; conditions: Homo sapiens, LNCaP
Method in brief: as §1

IGROV = experiment: SRB colorimetric cell growth inhibition assay, IGROV; conditions: Homo sapiens, IGROV
Method in brief: as §1

IGROV-ET = experiment: SRB colorimetric cell growth inhibition assay, IGROV-ET (ET-743 resistant); conditions: Homo sapiens
Method in brief: as §1

PANC-1 = experiment: SRB colorimetric cell growth inhibition assay, PANC-1; conditions: Homo sapiens
Method in brief: as §1

[1] = SRB colorimetric cell growth inhibition assay, H-MEC-1; conditions: human, LC50 H-MEC-1
Description: (§2) Inhibition of Cell Growth by Colorimetric Assay.
(§3) A colorimetric type of assay, using sulforhodamine B (SRB) reaction has been adapted for a quantitative measurement of cell growth and viability (following the technique described by P. A. Skehan, et al., J. Natl. Cancer Inst. 1990, 82, 1107-1112).
(§4) This form of assay employs 96 well cell culture microplates of 9 mm diameter (T. Mosmann et al., J. of Immunological Methods 1983, 65, 55-63; G. T. Faircloth et al., J. of Tissue and Culture Methods 1988, 11, 201-205).
(§5) Most of the cell lines are obtained from American Type Culture Collection (ATCC) derived from different human cancer types.
(§6) The values for mean +/− SD of data from triplicate wells are calculated. Some parameters for cellular responses can be calculated: GI=growth inhibition, TGI=total growth inhibition (cytostatic effect) and LC=cell killing (cytotoxic effect).

H-MEC-1 = experiment: as above; conditions: Homo sapiens, HMEC-1, H-MEC-1
Description: as §2, §3, §4, §5, §6

Q: For `COc1cc(-c2c3n(c4c(=O)oc5cc(OC(=O)[C@@H](N)C(C)C)c(OC)cc5c24)CCc2c-3cc(OC)c(OC)c2OC(=O)[C@@H](N)C(C)C)ccc1OC(=O)[C@@H](N)C(C)C` [Compound 128], which GI50 (K-562; K562, K-562, GI=growth inhibition, read-out: GI50 K-562) is on record?
A: 1.11 µM

Q: What about the IC (TGI) (K-562; K562, K-562, total growth inhibition (cytostatic effect), read-out: TGI K-562) of the same compound?
A: 2.98 µM

Q: What about the CC50 (K-562; K562, read-out: LC50 K-562, K-562, cell killing (cytotoxic effect)) of the same compound?
A: 8.01 µM

Q: And the GI50 (A-549; A549, A-549, GI=growth inhibition, read-out: GI50 A-549)?
A: 1.61 µM

Q: And the IC (TGI) (A-549; A549, A-549, total growth inhibition (cytostatic effect), read-out: TGI A-549)?
A: 3.23 µM

Q: And the CC50 (A-549; A549, read-out: LC50 A-549, A-549, cell killing (cytotoxic effect))?
A: 6.45 µM

Q: What about the GI50 (SK-MEL-28; SK-MEL-28, MEL-28, GI=growth inhibition, read-out: GI50 MEL-28) of the same compound?
A: 1.57 µM

Q: And the IC (TGI) (SK-MEL-28; SK-MEL-28, MEL-28, TGI=total growth inhibition (cytostatic effect), read-out: TGI MEL-28)?
A: 3.03 µM

Q: And the CC50 (SK-MEL-28; SK-MEL-28, read-out: LC50 MEL-28, MEL-28, LC=cell killing (cytotoxic effect))?
A: 5.86 µM

Q: What about the GI50 (HT-29; HT-29, HT-29, GI=growth inhibition, read-out: GI50 HT-29) of the same compound?
A: 1.95 µM

Q: What about the IC (TGI) (HT-29; HT-29, HT-29, total growth inhibition (cytostatic effect), read-out: TGI HT-29) of the same compound?
A: 3.54 µM

Q: What about the CC50 (HT-29; HT-29, read-out: LC50 HT-29, HT-29, cell killing (cytotoxic effect)) of the same compound?
A: 6.44 µM

Q: And the CC50 (LoVo; read-out: LC50 LOVO, LOVO, cell killing (cytotoxic effect))?
A: 4.3 µM

Q: What about the GI50 (LoVo; GI=growth inhibition, read-out: GI50 LOVO) of the same compound?
A: 0.854 µM

Q: And the IC (TGI) (LoVo; total growth inhibition (cytostatic effect), read-out: TGI LOVO)?
A: 1.92 µM

Q: What about the GI50 (LoVo-Dox; LOVO-DOX, GI=growth inhibition, read-out: GI50 LOVO-DOX) of the same compound?
A: 0.403 µM

Q: What about the IC (TGI) (LoVo-Dox; LOVO-DOX, total growth inhibition (cytostatic effect), read-out: TGI LOVO-DOX) of the same compound?
A: 1.49 µM

Q: What about the CC50 (LoVo-Dox; read-out: LC50 LOVO-DOX, LOVO-DOX, cell killing (cytotoxic effect)) of the same compound?
A: 4.66 µM

Q: What about the GI50 (DU-145; DU-145, DU-145, GI=growth inhibition, read-out: GI50 DU-145) of the same compound?
A: 1.33 µM

Q: What about the IC (TGI) (DU-145; DU-145, DU-145, TGI=total growth inhibition (cytostatic effect), read-out: TGI DU-145) of the same compound?
A: 2.48 µM

Q: What about the CC50 (DU-145; DU-145, read-out: LC50 DU-145, DU-145, LC=cell killing (cytotoxic effect)) of the same compound?
A: 4.62 µM

Q: What about the GI50 (LNCaP; LN-caP, GI=growth inhibition, read-out: GI50 LN-caP) of the same compound?
A: 1.26 µM

Q: And the IC (TGI) (LNCaP; LN-caP, TGI=total growth inhibition (cytostatic effect), read-out: TGI LN-caP)?
A: 2.69 µM

Q: What about the CC50 (LNCaP; read-out: LC50 LN-caP, LN-caP, LC=cell killing (cytotoxic effect)) of the same compound?
A: 5.71 µM

Q: And the CC50 (IGROV; read-out: LC50 IGROV, IGROV, LC=cell killing (cytotoxic effect))?
A: 5.7 µM

Q: And the GI50 (IGROV; GI=growth inhibition, read-out: GI50 IGROV)?
A: 0.639 µM

Q: What about the IC (TGI) (IGROV; TGI=total growth inhibition (cytostatic effect), read-out: TGI IGROV) of the same compound?
A: 1.98 µM

Q: And the GI50 (IGROV-ET; IGROV-ET, GI=growth inhibition, read-out: GI50 IGROV-ET)?
A: 0.689 µM

Q: What about the IC (TGI) (IGROV-ET; IGROV-ET, TGI=total growth inhibition (cytostatic effect), read-out: TGI IGROV-ET) of the same compound?
A: 2.26 µM

Q: What about the CC50 (IGROV-ET; read-out: LC50 IGROV-ET, IGROV-ET, LC=cell killing (cytotoxic effect)) of the same compound?
A: 7.59 µM

Q: What about the GI50 (PANC-1; PANC-1, PANC-1, GI=growth inhibition, read-out: GI50 PANC-1) of the same compound?
A: 0.888 µM

Q: What about the IC (TGI) (PANC-1; PANC-1, PANC-1, total growth inhibition (cytostatic effect), read-out: TGI PANC-1) of the same compound?
A: 2.31 µM

Q: And the CC50 (PANC-1; PANC-1, read-out: LC50 PANC-1, PANC-1, cell killing (cytotoxic effect))?
A: 5.99 µM

Q: And the CC50 [1]?
A: 6.53 µM

Q: What about the GI50 (H-MEC-1; GI=growth inhibition) of the same compound?
A: 1.53 µM

Q: And the IC (TGI) (H-MEC-1; TGI=total growth inhibition (cytostatic effect), read-out: TGI H-MEC-1)?
A: 3.16 µM
